# Entries after “also recorded” stand apart in the source; their conditions may differ.
# Experiments:
# GbA2 = biological target: T1, GbA2 (Homo sapiens, UniProt Q9HCG7); test: In vitro potency on GbA2 (non-lysosomal glucosylceramidase); format: biochemical
# T1 sequence (Q9HCG7 1-927): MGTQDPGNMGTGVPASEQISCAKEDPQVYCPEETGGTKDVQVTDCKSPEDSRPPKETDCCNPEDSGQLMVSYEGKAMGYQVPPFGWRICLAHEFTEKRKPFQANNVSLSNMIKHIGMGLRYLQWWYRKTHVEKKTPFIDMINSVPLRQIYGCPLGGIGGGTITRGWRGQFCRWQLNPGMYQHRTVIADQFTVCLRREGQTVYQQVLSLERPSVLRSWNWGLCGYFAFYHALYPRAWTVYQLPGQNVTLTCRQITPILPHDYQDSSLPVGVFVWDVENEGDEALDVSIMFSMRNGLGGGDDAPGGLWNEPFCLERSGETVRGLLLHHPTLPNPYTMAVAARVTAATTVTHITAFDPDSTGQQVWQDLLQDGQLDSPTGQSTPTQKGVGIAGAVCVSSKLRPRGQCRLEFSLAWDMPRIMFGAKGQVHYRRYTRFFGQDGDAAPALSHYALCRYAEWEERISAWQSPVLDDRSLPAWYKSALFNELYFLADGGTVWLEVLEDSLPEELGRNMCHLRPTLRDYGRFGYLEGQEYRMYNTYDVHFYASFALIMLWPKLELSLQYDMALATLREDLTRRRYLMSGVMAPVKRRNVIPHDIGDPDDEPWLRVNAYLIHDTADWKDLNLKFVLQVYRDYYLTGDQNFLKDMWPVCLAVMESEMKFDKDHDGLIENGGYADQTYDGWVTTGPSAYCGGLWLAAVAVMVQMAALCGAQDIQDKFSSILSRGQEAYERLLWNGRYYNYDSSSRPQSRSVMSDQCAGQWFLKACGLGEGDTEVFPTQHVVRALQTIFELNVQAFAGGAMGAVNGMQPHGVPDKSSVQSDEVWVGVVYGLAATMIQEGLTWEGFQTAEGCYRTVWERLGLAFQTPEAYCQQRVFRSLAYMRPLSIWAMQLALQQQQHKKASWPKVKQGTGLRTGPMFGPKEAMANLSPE
# [1] = system: Sandhoff mouse model (Hexb (−/−)); test: Survival study in Sandhoff mouse model; format: in vivo; settings: Hexb (−/−) mice
# Excerpt: (strain: B6; 129S4-Hexbtm1Rlp/J). The mouse line was maintained by crossing homozygous −/− males with heterozygous females (generating litters with 50%−/− and 50%+/−) under specific pathogen-free conditions. All mice were housed in individual, ventilated cages (IVCs) with 12-h light/dark cycles with food and water ad libitum. Young-adult mice of the same genetic C57BL/6 background were from Jackson Laboratories. Breeding of Hexb mutants will target needs of the “Long-term” cohorts first, followed by the “16-week” biomarker study.
# Cohort 1: There were a total of 6 dose groups and 2 vehicle groups using both Hexb+/− and Hexb−/− animals. […] Dosing occurred daily from day 30 to day 170, unless the animal was prematurely euthanized per protocol.
# A subsequent study to explore lower doses was also performed (in the same manner as in Example 2) in which doses of 0.02, 0.06, 0.2 and 0.5 mg/kg/day were used. […] It is unclear why the 0.06 mg/kg/day had less survival as formulations were checked and confirmed accurate dosing (internal data).
# [2] = system: Sandhoff mouse model (Hexb (−/−)); test: Open field test (OFT) in Sandhoff mice; format: in vivo; settings: Hexb (−/−) mice vs vehicle, 0.5-6 mg/kg/day
# Method: The OFT was conducted using a 40×40 cm sized apparatus in a quiet room and constant lighting conditions. Trial duration was 5 min. All trials were videotaped and later analysed using the tracking software Smart® Version 3.0.05. Measures included the average locomotion speed, walked distance and time spent in outer and inner zones of the field.
# (§1) Behavioral assessments, including open field tests (OFT, ActiMot, TSE systems) and rotarod (RR, IITC Life Sciences), were also performed. The OFT assessed motor skills by placing a mouse into a square box with high walls for 5 minutes to record several parameters, including distance travelled (centimetres) and resting time in zone (seconds). Motor coordination of mice was assessed using a RR apparatus as per previously published protocol (Osmon, Vyas et al. 2018). Briefly, mice were placed on moving cylinders that accelerated from 4 to 40 rotations per minute (rpm) over 5 minutes. Each mouse was allowed three trials on the RR with a minimum of 10 minutes for rest in-between assessments. The highest number achieved was recorded for each of the following parameters: latency to fall, end rotations per minute and distance travelled.
# [3] = system: Sandhoff mouse model (Hexb (−/−)); test: Rotarod (RR) test in Sandhoff mice; format: in vivo; settings: 16 weeks, 0.5-6 mg/kg/day
# Method: In the ROT, all animals were on the day before the first testing, habituated to the device for 5 min using a continuous rotation speed of 4-40 rotations per minute (rpm). For the subsequent experiments, no prior habituation was conducted. In the actual testing procedure, the test was conducted over 5 min with an accelerating rotation of 4-40 rpm. Time was measured until the animals fell from the rod. Up to 5 animals could be tested simultaneously.
# as §1
# GlcCer C16:0 and C18:0 = test: Target engagement: GlcCer C16:0 and C18:0 in the cerebellum; format: in vivo, mouse; settings: treated vs untreated heterozygous or Hexb (−/−) mice
# Excerpt: Consistent with this action, the inhibition of GbA2 should result in an increase in GlcCer species in the brain where GbA2 plays a significant role.
# [4] = system: GFAP (Glial fibrillary acidic protein); test: GFAP immunofluorescence in brain sections; format: in vivo, mouse; settings: for GFAP staining, treated vs vehicle: midsections
# Excerpt: Brain samples were collected, rinsed with saline and blotted dry. Samples were fixed in 4% PFA for immunohistochemical analyses; frozen and kept for gene expression and molecular biology analyses; and used frozen for LC-MS/MS analysis.
# GFAP (Glial fibrillary acidic protein) a class-III intermediate filament protein, is a cell-specific marker that, during the development of the central nervous system, distinguishes astrocytes from other glial cells. Intermediate filaments form networks that provide support and strength to cells. Several molecules of glial fibrillary acidic protein bind together to form the type of intermediate filament found in astroglial cells. Astroglial cells support and nourish cells in the brain and spinal cord. If brain or spinal cord cells are injured through trauma or disease, astroglial cells react by rapidly producing more glial fibrillary acidic protein.
# Hexb (+/−) mice = test: Lifespan of heterozygous Hexb (+/−) mice under treatment; settings: 3 mg/kg/day
# Method: For all cohorts, drug and/or vehicle (control) were administered by gastric gavage once a day, between 8.00-12.00 am, from the age of 30 days until euthanasia.
# In addition, animals heterozygous for the Hexb gene (+/−) were treated with vehicle or 3 mg/kg/day. Dosing continued until the animals reached their humane endpoints determined in a blinded fashion by the animal care staff and primarily consisted of the inability to reach sternal recumbency after 10 seconds and, if achieved, was additionally verified by the senior laboratory technician prior to the commencement of the animal being euthanized.
smiles,measurement,setting,value
OC[C@H]1[C@@H](O)[C@H](O)[C@@H](O)CN1CCCCCOCc1ccc(-c2ccccc2)c(F)c1 [AZ-3102],inhibitory activity on GbA2,GbA2,low nM
same,IC50,GbA2; in vitro potency,0.692 nM
same,median survival,[1]; 0.02 mg/kg/day,120 days
same,median survival,[1]; 0.06 mg/kg/day,116 days
same,median survival,[1]; 0.2 mg/kg/day,133 days
same,median survival,[1]; 0.5 mg/kg/day,138 days
same,increase of average median survival,"[1]; 0.5-6 mg/kg/day oral gavage daily, vs vehicle (115 days)",26 days
same,minimal effective dose on survival,[1]; once daily gavage,0.2 mg/kg/day
same,increase in survival / life expectancy,[1]; treated vs vehicle/untreated,22%
same,"OFT assessments (Total Distance Travelled, Resting Time in Zone)",[2],significantly improved
same,"RR assessments, effect of treatment vs vehicle",[3],significant at all dose levels; also recorded: significantly improved
same,increase in GlcCer C16:0,GlcCer C16:0 and C18:0,approximately 10 fold
same,increase in GlcCer C18:0,GlcCer C16:0 and C18:0,approximately 10 fold
same,"GFAP immunofluorescence, Mean","[4]; caudal section of the brain, Het (Hexb+/−), Female",508.99
same,"GFAP immunofluorescence, Mean","[4]; caudal section of the brain, Het (Hexb+/−), Male",425.10
same,"GFAP immunofluorescence, Mean","[4]; caudal section of the brain, KO (Hexb−/−), Female",1656.84
same,"GFAP immunofluorescence, Mean","[4]; caudal section of the brain, KO (Hexb−/−), Male",1762.82
same,"GFAP immunofluorescence, Mean","[4]; midsection of the brain, Het (Hexb+/−), Female",298.81
same,"GFAP immunofluorescence, Mean","[4]; midsection of the brain, Het (Hexb+/−), Male",395.99
same,"GFAP immunofluorescence, Mean","[4]; midsection of the brain, KO (Hexb−/−), Female",747.75
same,"GFAP immunofluorescence, Mean","[4]; midsection of the brain, KO (Hexb−/−), Male",866.38
same,"GFAP staining, treated vs vehicle",[4]; Hexb−/− females,statistical decrease
same,"GFAP staining, treated vs vehicle",[4]; Hexb−/− males,trend to having a decrease
same,effect on lifespan compared to vehicle,Hexb (+/−) mice,no effect on lifespan

# Reference: patent US20250120958A1, “Treatment of GM2 Gangliosidosis” (Azafaros B.V., priority 2022, published 2025)
